Results as given in patent US7288567B2, “Inhibitors of histone deacetylase” (Methylgene Inc., priority 2000, dated 2007).

Columns and labels:
[1] = tested on: histone deacetylase enzyme in nuclear extracts from H446 cells (pooled HDACs); assay: Histone deacetylase inhibition, H446 nuclear extracts (pooled HDACs); assay type: biochemical, human; conditions: H446 nuclear extract, [3H]-acetylated histone substrate
Outline: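 Nuclear extract (30 μg) of human small cell lung cancer H446 cells, preincubated with compound 30 min at 4° C, then reacted 10 min at 37° C with [3H]-acetylated histone substrate (20,000 cpm). Released [3H]-acetic acid extracted with ethyl acetate and counted; IC50 as concentration giving half-maximal inhibition from dose-response curves.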

[2] = molecular target: T1, recombinant human HDAC-1 enzyme (rHDAC-1) (Homo sapiens, UniProt Q13547); assay: Histone deacetylase inhibition, recombinant human HDAC-1; assay type: biochemical; conditions: cloned recombinant human HDAC-1, Baculovirus insect cell expression; read-out: rHDAC-1 IC50
T1 construct: made in house; host or cells: Baculovirus insect cell expression system
Outline: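 Recombinant human HDAC-1 or pooled HDACs from H446 nuclear extracts were preincubated with compounds for 30 min at 4 °C before the reaction. Released [3H]-acetic acid was extracted with ethyl acetate after acid stop and counted by scintillation. IC50 was the concentration giving half-maximal inhibition from dose-response curves.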

[3] = tested on: acetylated histone H-4 in T24 human bladder cancer cells; assay: Histone H4 acetylation in whole cells by immunoblots; assay type: cell-based; conditions: T-24, read-out: EC50, concentration effective for reducing the acetylated H-4 signal by 50%, T24 cells, 16 hours incubation, immunoblot densitometry
Procedure: T24 human bladder cancer cells growing in culture were incubated with HDAC inhibitors for 16 hours. Histones were extracted from the cells after the culture period as described by M. Yoshida et al. (J. Biol. Chem. 265(28): 17174-17179 (1990)). 20 μg of total histone protein was loaded onto SDS/PAGE and transferred to nitrocellulose membranes. Membranes were probed with polyclonal antibodies specific for acetylated histone H-4 (Upstate Biotech Inc.), followed by horse radish peroxidase conjugated secondary antibodies (Sigma). Enhanced Chemiluminescence (ECL) (Amersham) detection was performed using Kodak films (Eastman Kodak). Acetylated H-4 signal was quantified by densitometry.

[4] = tested on: A549 human lung carcinoma cells; assay: Antineoplastic effect on A549 tumors in nude mice; assay type: in vivo, BALB/c nude mice; conditions: A549 xenograft, daily injection about 10 to about 50 mg/kg, 21 days
Procedure: Eight to ten week old female BALB/c nude mice (Taconic Labs, Great Barrington, N.Y.) were injected subcutaneously in the flank area with 2×10^6 preconditioned A549 human lung carcinoma cells. Preconditioning of these cells was accomplished by a minimum of three consecutive tumor transplantations in the same strain of nude mice. Subsequently, tumor fragments of approximately 30 mgs were excised and implanted subcutaneously in mice, in the left flank area, under isoflurane anesthesia (Abbott Labs, Geneva, Switzerland). When the tumors reached a mean volume of 100 mm^3, the mice were treated intravenously, subcutaneously or intraperitoneally, by daily injection of a solution of the inhibitor in an appropriate vehicle such as PBS, DMSO/water, or Tween 80/water, at a dose from about 10 mg/kg to about 50 mg/kg, for 21 days. Tumor volume was calculated every second day post infusion according to standard methods (e.g., Meyer et al., Int. J. Cancer 43: 851-856 (1989)).

[5] = tested on: rat fibroblasts; conditions: Yoshida and Beppu 1988; cited from earlier work
[6] = tested on: cell growth; conditions: Finnin et al. 1999; cited from earlier work
[7] = tested on: tumors; conditions: Finnin et al. 1999; cited from earlier work
[8] = tested on: HDAC; conditions: Richon et al. 1998; cited from earlier work

T1 sequence (Q13547 whole entry): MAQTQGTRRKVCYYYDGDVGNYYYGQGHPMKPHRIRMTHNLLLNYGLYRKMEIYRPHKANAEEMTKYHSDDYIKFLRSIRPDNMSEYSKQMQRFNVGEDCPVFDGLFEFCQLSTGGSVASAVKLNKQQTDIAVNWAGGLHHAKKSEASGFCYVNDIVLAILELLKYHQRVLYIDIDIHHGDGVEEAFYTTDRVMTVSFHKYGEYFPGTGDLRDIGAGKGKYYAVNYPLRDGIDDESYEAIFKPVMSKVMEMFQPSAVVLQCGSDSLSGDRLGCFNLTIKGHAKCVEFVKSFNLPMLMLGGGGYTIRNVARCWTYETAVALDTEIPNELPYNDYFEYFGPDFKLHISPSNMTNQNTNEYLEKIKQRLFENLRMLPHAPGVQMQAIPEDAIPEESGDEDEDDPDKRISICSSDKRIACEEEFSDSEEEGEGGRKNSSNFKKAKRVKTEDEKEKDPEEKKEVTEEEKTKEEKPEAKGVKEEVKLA

`COC(c1ccc(N(C)C)cc1)C(C)/C=C(C)/C=C/C(=O)Nc1ccccc1N` (stereo not drawn) [Compound 34, N-(2-Aminophenyl)-4,6-dimethyl-7-methoxy-7-[4-(N,N-dimethylamino)phenyl]-2,4-heptadienamide] showed an IC50 [1] greater than 100 µM, an IC50 [2] of 7 µM and an EC50 [3] of 5 µM. For the same compound, the “tumor weight and volume relative to saline controls” value [4] was “significant reduction in tumor weight and volume”.

For `CC(/C=C/C(=O)NO)=C\[C@@H](C)C(=O)c1ccc(N(C)C)cc1` [TSA, trichostatin A], the cell cycle arrest [5] is given as “causes arrest of rat fibroblasts at the G1 and G2 phases of the cell cycle”, the cell growth [6] is given as “inhibit cell growth” and the terminal differentiation [6] is given as “induce terminal differentiation”. For the same compound, the “formation of tumors in mice” value [7] was “prevent the formation of tumors in mice” and the HDAC activity [8] was “inhibited”.
